Literature values as cited in patent US7932388B2, “Isotopically enriched N-substituted piperazines and methods for the preparation thereof” (DH Technologies Development Pte. Ltd., priority 2004, dated 2011).

Conditions: alcohol (leaving group) of the trifluoroacetate ester; no method or conditions printed

For N-hydroypyrrolidinone [NHP], the pKa is given as 9.38.
